Here are results for 14 molecules from publication PMC5584254, “Identification of novel small molecule Beclin 1 mimetics activating autophagy” (Oncotarget, 2017).

Test [1] addresses T1, Bcl-xL-Beclin 1 complex (Homo sapiens, UniProt Q07817).
T1 construct: made in house
Nature of the test: FP-based high-throughput screening, primary screen. In kind it is binding. As to conditions: first screen; 40 μM compound, 2.5 μM Bcl-xL, 400 nM 20-mer. The source says:
Next, we optimized the FP competitive binding assay in a 384-well microplate format and carried out a small-scale HTS using a small library, which contains 6580 compounds from Prestwick, Microsource and our in-house CMLD library. Then, the FP assay was optimized and applied in screening the larger Chembridge library consisting of 43736 compounds. HTS cascades are shown in Supplementary Figure 1A–1B. […] All chemical structures can be found on the PubChem website (http://pubchem.ncbi.nlm.nih.gov/).
(§1) Then the plates were read by Envision (Perkin Elmer, Waltham, MA). […] The hits were selected from library stocks and reconfirmed in a concentration response FP assay (6 doses ranging from 5 μM to 160 μM or 8 doses ranging from 0.5 μM to 60 μM).

Test [2] addresses T1, Bcl-xL-Beclin 1 complex. Nature of the test: Concentration response FP reconfirmation of HTS hits. As to conditions: for inhibition at 5 µM: read-out: Dose-response (% Inhibition) 5 μM; for inhibition at 10 µM: read-out: Dose-response (% Inhibition) 10 μM; for inhibition at 20 µM: read-out: Dose-response (% Inhibition) 20 μM; for inhibition at 40 µM: read-out: Dose-response (% Inhibition) 40 μM; for inhibition at 80 µM: read-out: Dose-response (% Inhibition) 80 μM; for inhibition at 160 µM: read-out: Dose-response (% Inhibition) 160 μM. Format: binding. The protocol: as §1

Where a name gives a salt, the structure may show the parent alone. Read-outs that look alike come from different tables or passages of the source.

T1 sequence (Q07817 whole entry, one chain of several): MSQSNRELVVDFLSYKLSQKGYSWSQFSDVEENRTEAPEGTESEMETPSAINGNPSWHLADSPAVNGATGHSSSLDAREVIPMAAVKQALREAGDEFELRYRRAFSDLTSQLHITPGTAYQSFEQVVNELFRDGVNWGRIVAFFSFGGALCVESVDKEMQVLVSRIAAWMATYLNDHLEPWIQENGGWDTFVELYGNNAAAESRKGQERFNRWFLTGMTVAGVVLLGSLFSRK

As for `CC[C@@]1(O)C(=O)OCc2c1cc1n(c2=O)Cc2cc3c(CN(C)C)c(O)ccc3nc2-1` [Compound A23, TOPOTECAN HYDROCHLORIDE], in test [1], the “Primary Screen mP” value was 43.8 mP and the inhibition (in general, the relative decrease from the control value, in per cent) at 40 µM is 68.7%. Moreover, the inhibition at 5 µM in test [2] (5 μM, hits of first screen) was 39.8%. For the same molecule, in test [2] (10 μM, hits of first screen), the inhibition at 10 µM was found to be 54.8%. The inhibition at 20 µM in test [2] (20 μM, hits of first screen) came out at 64.7%. Further, in test [2] (40 μM, hits of first screen), the inhibition at 40 µM was 70.9%. The inhibition at 80 µM in test [2] (80 μM, hits of first screen) was found to be 102%. For the same molecule, in test [2] (160 μM, hits of first screen), the inhibition at 160 µM was 103%.

Turning to `COc1cccc2c1C(=O)c1c(O)c3c(c(O)c1C2=O)C[C@@](O)(C(=O)CO)C[C@@H]3O[C@H]1C[C@H](N)[C@@H](O)[C@H](C)O1` [Compound A24, EPIRUBICIN HYDROCHLORIDE], in test [1], the “Primary Screen mP” value was 136.0 mP and the inhibition at 40 µM amounted to 22.8%. The inhibition at 5 µM in test [2] (5 μM, hits of first screen) came out at 6.8%. In addition, in test [2] (10 μM, hits of first screen), the inhibition at 10 µM stood at 11.3%. Besides, in test [2] (20 μM, hits of first screen), the inhibition at 20 µM came to 16.2%. Further, the inhibition at 40 µM in test [2] (40 μM, hits of first screen) came out at 23.1%. Moreover, in test [2] (80 μM, hits of first screen), the inhibition at 80 µM came to 34.4%. The inhibition at 160 µM in test [2] (160 μM, hits of first screen) was 40.9%.

On to `COc1cccc2c1C(=O)c1c(O)c3c(c(O)c1C2=O)C[C@@](O)(C(=O)CO)C[C@@H]3O[C@H]1C[C@H](N)[C@H](O)[C@H](C)O1` [Compound A25, DOXORUBICIN HYDROCHLORIDE], for which, in test [1], the “Primary Screen mP” value came out at 75.9 mP and the inhibition at 40 µM came to 44%. In addition, in test [2] (5 μM, hits of first screen), the inhibition at 5 µM was 18.9%. Moreover, the inhibition at 10 µM in test [2] (10 μM, hits of first screen) was found to be 29.1%. Besides, the inhibition at 20 µM in test [2] (20 μM, hits of first screen) turned out to be 36.5%. In test [2] (40 μM, hits of first screen), the inhibition at 40 µM was found to be 41.7%. In addition, in test [2] (80 μM, hits of first screen), the inhibition at 80 µM came out at 48.6%. Further, in test [2] (160 μM, hits of first screen), the inhibition at 160 µM amounted to 53.2%.

On to `C[n+]1c2cc(N)ccc2cc2ccc(N)cc21.[Cl-]` [Compound A26, ACRIFLAVINIUM HYDROCHLORIDE], for which, in test [1], the “Primary Screen % Inhibition” value was found to be 102.40% and the “Primary Screen mP” value is on record as -3.2 mP. In test [2] (5 μM, hits of first screen), the “Dose-response (% Inhibition) 5 μM” value was found to be 102.5%. The “Dose-response (% Inhibition) 10 μM” value in test [2] (10 μM, hits of first screen) is 102.5%. Moreover, the “Dose-response (% Inhibition) 20 μM” value in test [2] (20 μM, hits of first screen) came to 102.5%. The “Dose-response (% Inhibition) 40 μM” value in test [2] (40 μM, hits of first screen) is recorded as 102.5%. For the same molecule, the “Dose-response (% Inhibition) 80 μM” value in test [2] (80 μM, hits of first screen) is given as 102.0%. Moreover, the “Dose-response (% Inhibition) 160 μM” value in test [2] (160 μM, hits of first screen) was 102.4%.

Turning to `O=C1C(Cl)=C(Cl)C(=O)C(Cl)=C1Cl` [Compound A27, CHLORANIL], in test [1], the “Primary Screen mP” value is reported as 140.9 mP and the inhibition at 40 µM was 27.8%. For the same molecule, in test [2], the inhibition at 5 µM is -3%, the inhibition at 10 µM is 19.4%, the inhibition at 20 µM turned out to be 22.6% and the inhibition at 40 µM came out at 23.4%. Moreover, in test [2], the inhibition at 80 µM worked out at 28.5% and the inhibition at 160 µM was 35.9%.

As to `CC1=NCCc2c1[nH]c1cc(O)ccc21` [Compound A28, HARMALOL HYDROCHLORIDE], the “Primary Screen mP” value in test [1] came to 56.2 mP. In addition, the inhibition at 40 µM in test [1] stood at 60%; in test [2] (40 μM, hits of first screen) it was 56.8%. Moreover, the inhibition at 5 µM in test [2] (5 μM, hits of first screen) came to 19.2%. Moreover, the inhibition at 10 µM in test [2] (10 μM, hits of first screen) amounted to 31.2%. Further, the inhibition at 20 µM in test [2] (20 μM, hits of first screen) stood at 41.6%. The inhibition at 80 µM in test [2] (80 μM, hits of first screen) came to 73%. Also, the inhibition at 160 µM in test [2] (160 μM, hits of first screen) was determined as 86.2%.

As for `Cc1cc2nc3c(=O)[nH]c(=O)nc-3n(C[C@H](O)[C@H](O)[C@H](O)CO)c2cc1C` [Compound A31, RIBOFLAVIN], the “Primary Screen mP” value in test [1] is listed as -3.2 mP. For the same molecule, the inhibition at 40 µM in test [1] came to 102%; in test [2] (40 μM, hits of first screen), 99.7%. Further, the inhibition at 5 µM in test [2] (5 μM, hits of first screen) was determined as 67.6%. Moreover, the inhibition at 10 µM in test [2] (10 μM, hits of first screen) came out at 77.7%. In addition, in test [2] (20 μM, hits of first screen), the inhibition at 20 µM was 103%. Moreover, in test [2] (80 μM, hits of first screen), the inhibition at 80 µM was found to be 102%. Further, in test [2] (160 μM, hits of first screen), the inhibition at 160 µM is 103%.

For `CCN(CC)CCNC(=O)COc1ccc(OC)cc1.Cl` [Compound A32, MEFEXAMIDE HYDROCHLORIDE], in test [1], the “Primary Screen % Inhibition” value is 14.40% and the “Primary Screen mP” value worked out at 119.7 mP. Also, in test [2] (5 μM, hits of first screen), the “Dose-response (% Inhibition) 5 μM” value was -1.5%. Also, the “Dose-response (% Inhibition) 10 μM” value in test [2] (10 μM, hits of first screen) is reported as 2.6%. Moreover, the “Dose-response (% Inhibition) 20 μM” value in test [2] (20 μM, hits of first screen) amounted to 4.3%. The “Dose-response (% Inhibition) 40 μM” value in test [2] (40 μM, hits of first screen) is on record as 11.2%. The “Dose-response (% Inhibition) 80 μM” value in test [2] (80 μM, hits of first screen) amounted to 23.1%. In test [2] (160 μM, hits of first screen), the “Dose-response (% Inhibition) 160 μM” value was 32.1%.

Take `O=C(O)c1cc(O)c2c(c1)[C@H]([C@H]1c3cc(C(=O)O)cc(O)c3C(=O)c3c(O[C@@H]4O[C@H](CO)[C@@H](O)[C@H](O)[C@H]4O)cccc31)c1cccc(O[C@@H]3O[C@H](CO)[C@@H](O)[C@H](O)[C@H]3O)c1C2=O` [Compound A34, SENNOSIDE A]: in test [1], the “Primary Screen mP” value is 119.9 mP and the inhibition at 40 µM was found to be 12.8%. Moreover, the inhibition at 5 µM in test [2] (5 μM, hits of first screen) is 0.5%. In addition, in test [2] (10 μM, hits of first screen), the inhibition at 10 µM came to 4.7%. Moreover, in test [2] (20 μM, hits of first screen), the inhibition at 20 µM turned out to be 6.3%. Also, the inhibition at 40 µM in test [2] (40 μM, hits of first screen) was found to be 12%. The inhibition at 80 µM in test [2] (80 μM, hits of first screen) worked out at 22.5%. Also, the inhibition at 160 µM in test [2] (160 μM, hits of first screen) amounted to 20.9%.

Consider `O=C(O)c1cc(O)c2c(c1)[C@@H]([C@H]1c3cc(C(=O)O)cc(O)c3C(=O)c3c(O[C@@H]4O[C@H](CO)[C@@H](O)[C@H](O)[C@H]4O)cccc31)c1cccc(O[C@@H]3O[C@H](CO)[C@@H](O)[C@H](O)[C@H]3O)c1C2=O` [Compound A35, SENNOSIDE B], for which, in test [1], the “Primary Screen mP” value is given as 120.4 mP and the inhibition at 40 µM is 14.3%. Moreover, the inhibition at 5 µM in test [2] (5 μM, hits of first screen) turned out to be 2.7%. Moreover, the inhibition at 10 µM in test [2] (10 μM, hits of first screen) was 4.1%. In addition, the inhibition at 20 µM in test [2] (20 μM, hits of first screen) is 5.8%. The inhibition at 40 µM in test [2] (40 μM, hits of first screen) came to 13.6%. Also, the inhibition at 80 µM in test [2] (80 μM, hits of first screen) was 21.1%. In addition, in test [2] (160 μM, hits of first screen), the inhibition at 160 µM was determined as 19.9%.

For the molecule `COc1cccc2c1C(=O)c1c(O)c3c(c(O)c1C2=O)C[C@@](O)(C(C)=O)C[C@@H]3O[C@H]1C[C@H](N)[C@H](O)[C@H](C)O1` [Compound A36, DAUNORUBICIN], in test [1], the “Primary Screen mP” value is recorded as 75.5 mP and the inhibition at 40 µM is 45.8%. Also, in test [2], the inhibition at 5 µM is 22.8%, the inhibition at 10 µM came out at 33.4%, the inhibition at 20 µM stood at 41% and the inhibition at 40 µM came to 44.4%. Also, in test [2], the inhibition at 80 µM was 51.9% and the inhibition at 160 µM is 56%.

Take `Cc1cc2c(C(C)C)c(O)c(O)c(C=O)c2c(O)c1-c1c(C)cc2c(C(C)C)c(O)c(O)c(C=O)c2c1O` [Compound A38, GOSSYPOL]: in test [1], the “Primary Screen mP” value is 125.4 mP and the inhibition at 40 µM came out at 10.8%. Also, in test [2], the inhibition at 5 µM amounted to 2.7%, the inhibition at 10 µM came to 4.8%, the inhibition at 20 µM came to 5.4% and the inhibition at 40 µM was found to be 8.4%. In test [2], the inhibition at 80 µM is 14.7% and the inhibition at 160 µM stood at 18.3%.

For `O=C(Nc1ccccc1)c1ccccc1O` [Compound A39, SALICYLANILIDE], in test [1], the “Primary Screen mP” value is recorded as -3.2 mP and the inhibition at 40 µM is 102%. In test [2], the inhibition at 5 µM stood at 103%, the inhibition at 10 µM was determined as 103%, the inhibition at 20 µM is 103% and the inhibition at 40 µM stood at 99.7%. Besides, in test [2], the inhibition at 80 µM turned out to be 102% and the inhibition at 160 µM worked out at 103%.

For `CC[N+](C)(CC)CCC[n+]1c(-c2ccccc2)c2cc(N)ccc2c2ccc(N)cc21.[I-].[I-]` [Compound A40, PROPIDIUM IODIDE], in test [1], the “Primary Screen % Inhibition” value is 7.08% and the “Primary Screen mP” value was found to be 123.6 mP. Also, the “Dose-response (% Inhibition) 5 μM” value in test [2] (5 μM, hits of first screen) worked out at 0.5%. Also, in test [2] (10 μM, hits of first screen), the “Dose-response (% Inhibition) 10 μM” value is -0.2%. In addition, the “Dose-response (% Inhibition) 20 μM” value in test [2] (20 μM, hits of first screen) was 1.2%. In addition, the “Dose-response (% Inhibition) 40 μM” value in test [2] (40 μM, hits of first screen) is recorded as 4.4%. In addition, in test [2] (80 μM, hits of first screen), the “Dose-response (% Inhibition) 80 μM” value is 12.1%. Also, in test [2] (160 μM, hits of first screen), the “Dose-response (% Inhibition) 160 μM” value came out at 18.3%.
